Measured values taken from patent US11919902B2, “Aryl-bipyridine amine derivatives as phosphatidylinositol phosphate kinase inhibitors” (HiberCell, Inc., priority 2017, dated 2024).

Key:
GST tagged PIP4KtypeIIB = molecular target: T1, GST tagged PIP4KtypeIIB (Homo sapiens, UniProt P78356); experiment: Trans-FI P kinase assay PIP4K2B (PIP4KtypeIIB inhibition assay); assay type: biochemical; conditions: Table 4; compounds listed under IC50 range headings; 100 uM GTP, 5 nM PIP4KIIB; read-out: Trans-FI P kinase assays: PIP4K2B IC50
T1 construct: made in house; host or cells: E. coli
T1 sequence (P78356 1-416): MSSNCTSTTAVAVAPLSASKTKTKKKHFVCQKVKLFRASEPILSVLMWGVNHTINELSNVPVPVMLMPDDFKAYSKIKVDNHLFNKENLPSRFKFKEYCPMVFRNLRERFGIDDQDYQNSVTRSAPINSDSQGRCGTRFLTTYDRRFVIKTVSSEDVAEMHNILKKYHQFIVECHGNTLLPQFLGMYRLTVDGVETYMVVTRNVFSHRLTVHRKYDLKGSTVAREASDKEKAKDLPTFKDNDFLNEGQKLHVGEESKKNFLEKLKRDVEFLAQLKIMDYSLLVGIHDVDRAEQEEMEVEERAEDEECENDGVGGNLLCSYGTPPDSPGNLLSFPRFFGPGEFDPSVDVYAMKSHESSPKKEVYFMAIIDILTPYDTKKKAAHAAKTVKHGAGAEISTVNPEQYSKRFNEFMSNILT
From the text: GST tagged PIP4KtypeIIA and B enzymes were overexpressed in E. Coli and purified to >80% homogeneity. Phosphatidyl inositol-5-phosphate (PI5P, Cat. #850152, Avanti Polar Lipids Inc.) was used as the lipid substrate and phosphatidyl ethanolamine (DOPE 18:1, Cat. #850725, Avanti Polar Lipids Inc.) was used as the carrier lipid for assays. Ultrapure ATP and GTP was purchased from Bellbrooke Labs. ADP Glo reagents were obtained from Promega. Transcreener FI reagent was obtained from Bellbrooke labs.
1. HEPES buffer mix: 200 mM HEPES pH 7.4, 50 mM MgCl2, 0.05% v/v triton×100
2. HNE buffer: 20 mM HEPES, pH 7.4, 100 mM NaCl, 0.5 mM EGTA
3. H:E buffer: 30 mM HEPES, pH 7.4, 1 mM EGTA
GST-tagged PIP4KtypeIIB (3.4 uL, 2.77 mg/mL) was diluted to 5 mL using HNE buffer to yield 5× enzyme stock (25 nM)
Lipid Preparation: In a 10 mL pyrex glass vial, lug of PI5P and lug of DOPE were suspended in 2.5 mL of HEPES buffer mix and 2.5 mL of H:E buffer. The contents were mixed and sonicated for 3 min to yield a translucent lipid stock.
Compound Preparation: Compounds were stored as 5 mM stocks in neat DMSO as room temperature in glass vials. 5 mM stocks were diluted to 2 mM and then serially diluted (3×) in neat DMSO in 96 well polypropylene plates. From the serially diluted stocks, 3 uL was delivered into 250 uL of 25% DMSO (in water) to generate 5× compound stocks. Typically, the highest compound conc. was 24 uM.
The assay volume was kept at 25 uL. To each well of the reaction plate, 10 uL of lipid stock (1:1 ratio PI5P:DOPE) was delivered. This was followed by the addition of 5 uL of compound in 25% DMSO. Then, to each well, 5 uL of 25 nM (5×) typeIIB enzyme was delivered. The contents were mixed well and incubated for 1 h at 27 C. After 1 h, reaction was initiated by adding 5 uL of 500 uM GTP and the contents were mixed well with a multi-channel pipetteman. The final concentration of the reagents are as follows: 50 mM HEPES, pH 7.3, 10 mM MgCl2, 20 mM NaCl, 0.01% v/v triton-X100, 5% DMSO, 100 uM GTP, 80 uM (2 ug) PI5P, 2 ug DOPE, and 5 nM PIP4KIIB Typically, the highest conc. of compounds was 4.8 uM and the lowest conc. was 0.
After 2 h, the reaction was quenched by adding 25 uL of transcreener FI reagent. The contents were incubated at RT for 1 h and the Fluorescence (Ex: 584 Em: 623) was read using Molecular Devices Paradigm plate reader. […] The blanks were averaged and subtracted from all other wells. Using a calibration curve, RFU was converted to uM GDP (product). IC50 was calculated by plotting the residual activity (expressed as % No inhibitor control) vs. log [Inh. conc.] Table 2 represents PI5P4K activity of compounds (Example No.) of the invention arranged in accordance with the inhibition of PIP4K2 A kinase assay.

[1] = molecular target: T2, PIP4K2A (full length protein, SignalChem) (Homo sapiens, UniProt P48426); experiment: Kinase Assay PIP4K2 A (Sprint); ADP-Glo biochemical assay; conditions: Table 2; compounds listed under IC50 range headings
T2 construct: 4 nM PIP4K2A (full length protein, SignalChem); purchased SignalChem
T2 sequence (P48426 1-406): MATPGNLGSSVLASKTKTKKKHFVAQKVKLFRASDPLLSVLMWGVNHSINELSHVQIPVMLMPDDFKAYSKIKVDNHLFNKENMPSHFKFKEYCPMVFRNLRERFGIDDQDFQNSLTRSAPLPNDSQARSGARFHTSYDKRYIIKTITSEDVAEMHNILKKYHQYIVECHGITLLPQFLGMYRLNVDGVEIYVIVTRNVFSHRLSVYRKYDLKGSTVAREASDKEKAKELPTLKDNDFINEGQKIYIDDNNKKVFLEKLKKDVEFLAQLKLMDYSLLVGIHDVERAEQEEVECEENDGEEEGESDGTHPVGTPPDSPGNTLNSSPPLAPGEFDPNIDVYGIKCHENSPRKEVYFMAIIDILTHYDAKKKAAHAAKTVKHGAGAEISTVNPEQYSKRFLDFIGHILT
How it was run: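 Compounds (10-point, 3-fold dilutions) were pre-incubated 15 min at RT with an enzyme/substrate mix of 4 nM full-length PIP4K2A and 100 μM PI(5)P diC8 in 20 mM MOPS pH 7.2, 25 mM MgCl2, 0.005% Tween 20. A 60 μM ATP solution was added, reaction 1 h RT; ADP read by ADP-Glo luminescence, IC50 fitted from % inhibition vs DMSO.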

Row | Compound | IC50 (GST tagged PIP4KtypeIIB) [nM] | IC50 [1] [nM]
1 | O=C(c1cc2c(-c3cncc(-c4ccc(N5CCCC5=O)cc4)c3)ccnc2[nH]1)N1CCCC2(CCCO2)C1 (stereo not drawn) [Example 332, 1-(4-(5-(2-(1-oxa-7-azaspiro[4.5]decane-7-carbonyl)-1H-pyrrolo[2,3-b]pyridin-4-yl)pyridin-3-yl)phenyl)pyrrolidin-2-one] | 100 to 1000 | 100 to 1000
2 | O=C1CCCN1c1ccc(-c2cncc(-c3cc(C4CC4)nc4nncn34)c2)cc1 [Example 333, 1-(4-(5-(7-cyclopropyl-[1,2,4]triazolo[4,3-a]pyrimidin-5-yl)pyridin-3-yl)phenyl)pyrrolidin-2-one] | 100 to 1000 | 100 to 1000
3 | Nc1ncc(-c2cnc3ncc(-c4cncc(-c5ccc(N6CCCC6=O)cc5)c4)cn23)cn1 [Example 334, 1-(4-(5-(3-(2-aminopyrimidin-5-yl)imidazo[1,2-a]pyrimidin-6-yl)pyridin-3-yl)phenyl)pyrrolidin-2-one] | 100 to 1000 | 100 to 1000
4 | CN1CCn2c(cc3c(-c4cncc(-c5ccc(C(=O)N6CCC(C)(C)CC6)cc5)c4)ccnc32)C1=O [Example 335, 4-(5-(4-(4,4-dimethylpiperidine-1-carbonyl)phenyl)pyridin-3-yl)-7-methyl-8,9-dihydropyrido[3′,2′:4,5]pyrrolo[1,2-a]pyrazin-6(7H)-one] | 100 to 1000 | 100 to 1000
5 | Cc1cc(-c2cncc(-c3ccc(N4CCCC4=O)cc3)c2)n2cnnc2n1 [Example 336, 1-(4-(5-(7-methyl-[1,2,4]triazolo[4,3-a]pyrimidin-5-yl)pyridin-3-yl)phenyl)pyrrolidin-2-one] | > 5000 | < 5000
6 | Nc1ccc(-c2cnc3ncc(-c4cncc(-c5ccc(N6CCCC6=O)cc5)c4)cn23)cn1 [Example 337, 1-(4-(5-(3-(6-aminopyridin-3-yl)imidazo[1,2-a]pyrimidin-6-yl)pyridin-3-yl)phenyl)pyrrolidin-2-one] | 100 to 1000 | 5 to 100
7 | CC(C)(O)c1cnc2[nH]c(C3CC3)c(-c3cncc(-c4ccc(N5CCCC5=O)cc4)c3)c2c1 [Example 338, 1-(4-(5-(2-cyclopropyl-5-(2-hydroxypropan-2-yl)-1H-pyrrolo[2,3-b]pyridin-3-yl)pyridin-3-yl)phenyl)pyrrolidin-2-one] | 10 to 100 | 100 to 1000
8 | Cc1ccc2c(c1)OCCN2C(=O)c1cc2c(-c3cncc(-c4ccc(N5CCCC5=O)cc4)c3)ccnc2[nH]1 [Example 339, 1-(4-(5-(2-(7-methyl-3,4-dihydro-2H-benzo[b][1,4]oxazine-4-carbonyl)-1H-pyrrolo[2,3-b]pyridin-4-yl)pyridin-3-yl)phenyl)pyrrolidin-2-one] | 100 to 1000 | 100 to 1000
9 | O=C1CCCN1c1ccc(-c2cncc(-c3ccnc4nncn34)c2)cc1 [Example 340, 1-(4-(5-([1,2,4]triazolo[4,3-a]pyrimidin-5-yl)pyridin-3-yl)phenyl)pyrrolidin-2-one] | > 5000 | < 5000
10 | O=C1CCCN1c1ccc(-c2cncc(-c3cnc4ncc(-c5cncnc5)n4c3)c2)cc1 [Example 341, 1-(4-(5-(3-(pyrimidin-5-yl)imidazo[1,2-a]pyrimidin-6-yl)pyridin-3-yl)phenyl)pyrrolidin-2-one] | 1000 to 2500 | 1000 to 2500
11 | CN1CCn2c(cc3c(-c4cncc(-c5ccc(N6CCC(C)(C)CC6=O)cc5)c4)ccnc32)C1=O [Example 342, 4-(5-(4-(4,4-dimethyl-2-oxopiperidin-1-yl)phenyl)pyridin-3-yl)-7-methyl-8,9-dihydropyrido[3′,2′:4,5]pyrrolo[1,2-a]pyrazin-6(7H)-one] | 100 to 1000 | 1000 to 2500
12 | CC(=O)Nc1ccc(-c2cn(C)c3ncc(-c4cncc(-c5ccc(N6CCCC6=O)cc5)c4)cc23)cn1 [Example 343, N-(5-(1-methyl-5-(5-(4-(2-oxopyrrolidin-1-yl)phenyl)pyridin-3-yl)-1H-pyrrolo[2,3-b]pyridin-3-yl)pyridin-2-yl)acetamide] | 100 to 1000 | 5 to 100
13 | O=C1CCCN1c1ccc(-c2cncc(-c3cnc4ncc(-c5cccnc5)n4c3)c2)cc1 [Example 344, 1-(4-(5-(3-(pyridin-3-yl)imidazo[1,2-a]pyrimidin-6-yl)pyridin-3-yl)phenyl)pyrrolidin-2-one] | > 5000 | 2500 to 5000
14 | Cn1cc(-c2ccc(N)nc2)c2cc(-c3cncc(-c4ccc(N5CCCC5=O)cc4)c3)cnc21 [Example 347, 1-(4-(5-(3-(6-aminopyridin-3-yl)-1-methyl-1H-pyrrolo[2,3-b]pyridin-5-yl)pyridin-3-yl)phenyl)pyrrolidin-2-one] | 100 to 1000 | 100 to 1000
15 | CN1CCn2c(cc3c(-c4cncc(-c5ccc(-c6nnc7n6CCC7)cc5)c4)ccnc32)C1=O [Example 348, 4-(5-(4-(6,7-dihydro-5H-pyrrolo[2,1-c][1,2,4]triazol-3-yl)phenyl)pyridin-3-yl)-7-methyl-8,9-dihydropyrido[3′,2′:4,5]pyrrolo[1,2-a]pyrazin-6(7H)-one] | 100 to 1000 | 100 to 1000
16 | CN1CCn2c(cc3c(-c4cncc(-c5ccc(C(=O)N6CCCC6)cc5)c4)ccnc32)C1=O [Example 349, 7-methyl-4-(5-(4-(pyrrolidine-1-carbonyl)phenyl)pyridin-3-yl)-8,9-dihydropyrido[3′,2′:4,5]pyrrolo[1,2-a]pyrazin-6(7H)-one] | 100 to 1000 | 100 to 1000
17 | CC(=O)Nc1ncc(-c2cn(C)c3ncc(-c4cncc(-c5ccc(N6CCCC6=O)cc5)c4)cc23)cn1 [Example 350, N-(5-(1-methyl-5-(5-(4-(2-oxopyrrolidin-1-yl)phenyl)pyridin-3-yl)-1H-pyrrolo[2,3-b]pyridin-3-yl)pyrimidin-2-yl)acetamide] | 100 to 1000 | 5 to 100
18 | Cc1c2n(c3nccc(-c4cncc(-c5ccc(-c6nncn6C6CCC6)cc5)c4)c13)CCN(c1ccccn1)C2=O [Example 356, 4-(5-(4-(4-cyclobutyl-4H-1,2,4-triazol-3-yl)phenyl)pyridin-3-yl)-5-methyl-7-(pyridin-2-yl)-8,9-dihydropyrido[3′,2′:4,5]pyrrolo[1,2-a]pyrazin-6(7H)-one] | 100 to 1000 | < 5000
